Data from ChEMBL document CHEMBL4507269, “Data for DCP probe BAY-386” (2021).

Columns and labels:
[1] = target: T1, Alpha-2A adrenergic receptor (Homo sapiens) (UniProt P08913); assay: alpha2A (h) Eurofins-Cerep Cellular and Nuclear Receptor Functional Assays; details: Compound concentration 10.0 uM
T1 sequence (whole entry): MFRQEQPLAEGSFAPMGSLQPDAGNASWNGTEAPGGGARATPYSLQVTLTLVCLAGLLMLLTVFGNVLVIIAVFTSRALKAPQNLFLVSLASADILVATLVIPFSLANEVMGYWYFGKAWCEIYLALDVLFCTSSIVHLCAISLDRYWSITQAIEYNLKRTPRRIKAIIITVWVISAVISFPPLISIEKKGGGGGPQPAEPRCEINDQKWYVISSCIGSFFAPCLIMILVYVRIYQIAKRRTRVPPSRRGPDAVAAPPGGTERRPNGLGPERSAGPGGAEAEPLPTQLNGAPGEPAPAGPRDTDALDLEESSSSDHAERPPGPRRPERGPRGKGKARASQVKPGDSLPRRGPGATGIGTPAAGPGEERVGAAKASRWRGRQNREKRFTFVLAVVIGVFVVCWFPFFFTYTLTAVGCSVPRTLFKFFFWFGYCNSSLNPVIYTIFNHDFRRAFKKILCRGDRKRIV

[2] = test system: Tyrosine-protein kinase ABL1 (Homo sapiens), P00519 [F317L]; details: Compound concentration 1000.0 nM
[3] = target: Tyrosine-protein kinase ABL2 (Homo sapiens) (UniProt P42684); details: Compound concentration 1000.0 nM
[4] = target: ALK tyrosine kinase receptor (Homo sapiens) (UniProt Q9UM73); details: Compound concentration 1000.0 nM
[5] = target: Aurora kinase C (Homo sapiens) (UniProt Q9UQB9); details: Compound concentration 1000.0 nM
[6] = target: BMP-2-inducible protein kinase (Homo sapiens) (UniProt Q9NSY1); details: Compound concentration 1000.0 nM
[7] = target: Bone morphogenetic protein receptor type-1B (Homo sapiens) (UniProt O00238); details: Compound concentration 1000.0 nM
[8] = target: Serine/threonine-protein kinase B-raf (Homo sapiens) (UniProt P15056); details: Compound concentration 1000.0 nM
[9] = target: Calcium/calmodulin-dependent protein kinase type IV (Homo sapiens) (UniProt Q16566); details: Compound concentration 1000.0 nM
[10] = target: Cyclin-dependent kinase 8 (Homo sapiens) (UniProt P49336); details: Compound concentration 1000.0 nM
[11] = target: Cyclin-dependent kinase-like 3 (Homo sapiens) (UniProt Q8IVW4); details: Compound concentration 1000.0 nM
[12] = target: Serine/threonine-protein kinase Chk2 (Homo sapiens) (UniProt O96017); details: Compound concentration 1000.0 nM
[13] = target: Casein kinase I isoform alpha (Homo sapiens) (UniProt P48729); details: Compound concentration 1000.0 nM
[14] = target: Myotonin-protein kinase (Homo sapiens) (UniProt Q09013); details: Compound concentration 1000.0 nM
[15] = test system: Epidermal growth factor receptor (Homo sapiens), P00533 [T790M]; details: Compound concentration 1000.0 nM
[16] = target: Mitogen-activated protein kinase 6 (Homo sapiens) (UniProt Q16659); details: Compound concentration 1000.0 nM
[17] = test system: Receptor-type tyrosine-protein kinase FLT3 (Homo sapiens), P36888 [D835V]; details: Compound concentration 1000.0 nM
[18] = target: G protein-coupled receptor kinase 3 (Homo sapiens) (UniProt P35626); details: Compound concentration 1000.0 nM
[19] = target: Inhibitor of nuclear factor kappa-B kinase subunit beta (Homo sapiens) (UniProt O14920); details: Compound concentration 1000.0 nM
[20] = target: Interleukin-1 receptor-associated kinase 4 (Homo sapiens) (UniProt Q9NWZ3); details: Compound concentration 1000.0 nM
[21] = target: Tyrosine-protein kinase ITK/TSK (Homo sapiens) (UniProt Q08881); details: Compound concentration 1000.0 nM
[22] = target: Mitogen-activated protein kinase kinase kinase kinase 5 (Homo sapiens) (UniProt Q9Y4K4); details: Compound concentration 1000.0 nM
[23] = target: Misshapen-like kinase 1 (Homo sapiens) (UniProt Q8N4C8); details: Compound concentration 1000.0 nM
[24] = target: Myosin light chain kinase 2, skeletal/cardiac muscle (Homo sapiens) (UniProt Q9H1R3); details: Compound concentration 1000.0 nM
[25] = target: Serine/threonine-protein kinase Nek1 (Homo sapiens) (UniProt Q96PY6); details: Compound concentration 1000.0 nM
[26] = target: Serine/threonine-protein kinase Nek10 (Homo sapiens) (UniProt Q6ZWH5); details: Compound concentration 1000.0 nM
[27] = target: Cyclin-dependent kinase 15 (Homo sapiens) (UniProt Q96Q40); details: Compound concentration 1000.0 nM
[28] = test system: Phosphatidylinositol 4,5-bisphosphate 3-kinase catalytic subunit alpha isoform (Homo sapiens), P42336 [C420R]; details: Compound concentration 1000.0 nM
[29] = target: Phosphatidylinositol 4,5-bisphosphate 3-kinase catalytic subunit delta isoform (Homo sapiens) (UniProt O00329); details: Compound concentration 1000.0 nM
[30] = target: 1-phosphatidylinositol 3-phosphate 5-kinase (Homo sapiens) (UniProt Q9Y2I7); details: Compound concentration 1000.0 nM
[31] = target: Serine/threonine-protein kinase PLK1 (Homo sapiens) (UniProt P53350); details: Compound concentration 1000.0 nM
[32] = target: Protein kinase C delta type (Homo sapiens) (UniProt Q05655); details: Compound concentration 1000.0 nM
[33] = target: cGMP-dependent protein kinase 2 (Homo sapiens) (UniProt Q13237); details: Compound concentration 1000.0 nM
[34] = target: Rho-associated protein kinase 1 (Homo sapiens) (UniProt Q13464); details: Compound concentration 1000.0 nM
[35] = target: Ribosomal protein S6 kinase alpha-4 (Homo sapiens) (UniProt O75676); details: Compound concentration 1000.0 nM
[36] = target: Serine/threonine-protein kinase SBK1 (Homo sapiens) (UniProt Q52WX2); details: Compound concentration 1000.0 nM
[37] = target: Tyrosine-protein kinase Srms (Homo sapiens) (UniProt Q9H3Y6); details: Compound concentration 1000.0 nM
[38] = target: Serine/threonine-protein kinase ULK3 (Homo sapiens) (UniProt Q6PHR2); details: Compound concentration 1000.0 nM
[39] = target: Tyrosine-protein kinase ZAP-70 (Homo sapiens) (UniProt P43403); details: Compound concentration 1000.0 nM

Sequence of ALK tyrosine kinase receptor (Homo sapiens) (Q9UM73 19-1620 limits assumed): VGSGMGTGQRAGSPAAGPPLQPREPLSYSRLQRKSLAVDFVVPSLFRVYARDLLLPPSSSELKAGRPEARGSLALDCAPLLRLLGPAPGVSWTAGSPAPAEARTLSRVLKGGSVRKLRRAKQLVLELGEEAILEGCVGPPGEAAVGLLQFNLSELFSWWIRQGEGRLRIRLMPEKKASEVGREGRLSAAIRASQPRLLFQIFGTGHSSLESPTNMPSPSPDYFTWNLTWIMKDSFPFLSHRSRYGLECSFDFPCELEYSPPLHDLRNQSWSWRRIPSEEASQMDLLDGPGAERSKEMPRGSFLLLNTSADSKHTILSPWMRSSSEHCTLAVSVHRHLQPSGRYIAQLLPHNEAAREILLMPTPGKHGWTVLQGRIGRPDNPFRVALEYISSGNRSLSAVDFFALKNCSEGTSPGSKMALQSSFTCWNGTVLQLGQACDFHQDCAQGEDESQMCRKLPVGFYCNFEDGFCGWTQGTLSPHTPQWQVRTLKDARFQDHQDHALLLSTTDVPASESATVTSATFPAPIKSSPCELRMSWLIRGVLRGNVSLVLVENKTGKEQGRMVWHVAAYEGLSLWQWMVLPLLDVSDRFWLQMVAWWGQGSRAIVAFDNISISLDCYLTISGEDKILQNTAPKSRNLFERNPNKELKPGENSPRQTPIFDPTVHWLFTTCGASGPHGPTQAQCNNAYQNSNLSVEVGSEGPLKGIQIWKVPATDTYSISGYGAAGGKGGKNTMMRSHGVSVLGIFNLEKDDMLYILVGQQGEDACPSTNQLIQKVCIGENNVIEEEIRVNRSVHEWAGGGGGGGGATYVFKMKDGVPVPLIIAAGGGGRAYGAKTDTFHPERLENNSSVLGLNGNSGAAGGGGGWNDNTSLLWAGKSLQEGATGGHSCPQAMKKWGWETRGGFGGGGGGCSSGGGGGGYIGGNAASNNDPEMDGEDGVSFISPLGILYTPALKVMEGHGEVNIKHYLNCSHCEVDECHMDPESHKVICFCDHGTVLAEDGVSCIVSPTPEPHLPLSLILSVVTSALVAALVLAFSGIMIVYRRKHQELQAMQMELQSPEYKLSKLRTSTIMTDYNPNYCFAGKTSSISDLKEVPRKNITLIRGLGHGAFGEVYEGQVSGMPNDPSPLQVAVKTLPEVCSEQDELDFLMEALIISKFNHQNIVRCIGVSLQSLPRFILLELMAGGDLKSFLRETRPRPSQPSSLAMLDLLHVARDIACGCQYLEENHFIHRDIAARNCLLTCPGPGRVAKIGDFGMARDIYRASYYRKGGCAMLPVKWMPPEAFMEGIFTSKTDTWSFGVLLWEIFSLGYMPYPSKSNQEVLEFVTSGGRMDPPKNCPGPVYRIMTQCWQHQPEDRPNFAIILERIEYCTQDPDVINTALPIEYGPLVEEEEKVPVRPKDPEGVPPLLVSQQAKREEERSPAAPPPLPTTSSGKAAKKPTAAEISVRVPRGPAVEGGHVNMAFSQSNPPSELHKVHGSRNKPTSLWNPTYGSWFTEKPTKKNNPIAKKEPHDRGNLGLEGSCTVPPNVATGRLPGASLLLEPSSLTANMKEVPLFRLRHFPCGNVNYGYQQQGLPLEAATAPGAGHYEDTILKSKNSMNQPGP
Sequence of 1-phosphatidylinositol 3-phosphate 5-kinase (Homo sapiens) (Q9Y2I7 whole entry): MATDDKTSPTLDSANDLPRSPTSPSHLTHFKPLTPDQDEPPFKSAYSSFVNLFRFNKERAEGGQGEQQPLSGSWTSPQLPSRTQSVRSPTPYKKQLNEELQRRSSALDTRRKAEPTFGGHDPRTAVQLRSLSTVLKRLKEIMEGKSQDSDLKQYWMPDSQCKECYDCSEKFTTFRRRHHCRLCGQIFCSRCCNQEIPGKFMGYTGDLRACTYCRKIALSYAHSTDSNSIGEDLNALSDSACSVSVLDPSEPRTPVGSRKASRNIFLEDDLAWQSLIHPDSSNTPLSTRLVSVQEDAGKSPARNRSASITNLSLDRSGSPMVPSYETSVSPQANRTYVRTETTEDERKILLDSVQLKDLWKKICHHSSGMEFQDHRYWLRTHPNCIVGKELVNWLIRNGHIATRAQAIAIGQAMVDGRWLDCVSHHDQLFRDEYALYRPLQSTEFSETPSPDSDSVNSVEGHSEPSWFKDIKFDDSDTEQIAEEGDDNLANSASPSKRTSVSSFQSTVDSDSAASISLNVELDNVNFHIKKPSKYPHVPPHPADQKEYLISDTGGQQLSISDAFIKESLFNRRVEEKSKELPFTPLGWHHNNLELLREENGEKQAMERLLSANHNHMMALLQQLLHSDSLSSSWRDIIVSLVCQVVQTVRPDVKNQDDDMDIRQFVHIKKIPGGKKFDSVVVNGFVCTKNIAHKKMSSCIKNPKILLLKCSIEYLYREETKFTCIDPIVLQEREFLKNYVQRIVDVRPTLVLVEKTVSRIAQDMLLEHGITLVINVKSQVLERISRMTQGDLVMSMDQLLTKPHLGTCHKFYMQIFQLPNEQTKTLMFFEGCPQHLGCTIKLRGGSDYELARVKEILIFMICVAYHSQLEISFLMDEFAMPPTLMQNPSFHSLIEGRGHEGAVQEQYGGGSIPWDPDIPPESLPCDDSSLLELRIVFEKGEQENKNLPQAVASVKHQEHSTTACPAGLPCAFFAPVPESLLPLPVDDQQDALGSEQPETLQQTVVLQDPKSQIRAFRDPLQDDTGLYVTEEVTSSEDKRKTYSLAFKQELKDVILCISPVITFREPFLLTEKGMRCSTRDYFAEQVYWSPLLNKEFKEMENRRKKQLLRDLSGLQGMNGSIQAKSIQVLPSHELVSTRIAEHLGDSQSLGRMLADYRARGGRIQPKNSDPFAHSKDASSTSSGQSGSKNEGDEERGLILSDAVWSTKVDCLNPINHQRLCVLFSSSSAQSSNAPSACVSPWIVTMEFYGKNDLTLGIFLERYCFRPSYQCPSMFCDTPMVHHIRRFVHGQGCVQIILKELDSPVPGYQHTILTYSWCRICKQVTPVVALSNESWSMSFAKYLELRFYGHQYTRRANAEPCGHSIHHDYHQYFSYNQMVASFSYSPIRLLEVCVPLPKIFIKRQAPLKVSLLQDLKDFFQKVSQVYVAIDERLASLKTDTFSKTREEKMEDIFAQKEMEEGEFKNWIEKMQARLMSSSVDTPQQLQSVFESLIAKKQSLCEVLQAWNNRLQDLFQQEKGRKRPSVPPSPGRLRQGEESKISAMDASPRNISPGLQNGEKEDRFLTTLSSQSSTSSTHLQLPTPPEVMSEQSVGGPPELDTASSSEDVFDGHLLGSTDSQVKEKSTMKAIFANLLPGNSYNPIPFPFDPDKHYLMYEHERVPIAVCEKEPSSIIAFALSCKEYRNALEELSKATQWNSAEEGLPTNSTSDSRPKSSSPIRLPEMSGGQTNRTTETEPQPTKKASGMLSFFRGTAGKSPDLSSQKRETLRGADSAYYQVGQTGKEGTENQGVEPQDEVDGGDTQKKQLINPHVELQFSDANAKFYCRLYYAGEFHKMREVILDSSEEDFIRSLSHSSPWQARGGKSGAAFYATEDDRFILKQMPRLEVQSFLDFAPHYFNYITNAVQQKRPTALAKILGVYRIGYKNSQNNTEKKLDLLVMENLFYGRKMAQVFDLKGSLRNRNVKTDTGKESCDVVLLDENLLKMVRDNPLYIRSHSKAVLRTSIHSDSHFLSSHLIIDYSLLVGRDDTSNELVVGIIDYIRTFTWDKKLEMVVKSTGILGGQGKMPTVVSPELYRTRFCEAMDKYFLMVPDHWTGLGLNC
Sequence of Cyclin-dependent kinase-like 3 (Homo sapiens) (Q8IVW4 whole entry, looked up): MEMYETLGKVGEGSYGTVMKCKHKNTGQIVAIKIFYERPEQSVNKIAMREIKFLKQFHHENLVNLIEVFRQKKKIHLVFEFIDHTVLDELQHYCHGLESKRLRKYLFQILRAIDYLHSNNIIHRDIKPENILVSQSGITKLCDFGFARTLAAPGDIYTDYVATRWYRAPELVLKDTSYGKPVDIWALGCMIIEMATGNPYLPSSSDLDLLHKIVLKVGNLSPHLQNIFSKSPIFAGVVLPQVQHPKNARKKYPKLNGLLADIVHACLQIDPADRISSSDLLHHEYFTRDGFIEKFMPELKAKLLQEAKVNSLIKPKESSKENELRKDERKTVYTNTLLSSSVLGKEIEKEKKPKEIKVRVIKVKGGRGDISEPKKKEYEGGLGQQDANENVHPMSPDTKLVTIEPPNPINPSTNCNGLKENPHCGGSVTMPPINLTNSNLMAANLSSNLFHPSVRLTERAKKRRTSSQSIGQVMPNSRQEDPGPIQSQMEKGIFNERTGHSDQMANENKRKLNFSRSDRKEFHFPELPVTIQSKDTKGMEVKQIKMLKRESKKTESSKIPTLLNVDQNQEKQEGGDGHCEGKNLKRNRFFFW
Sequence of Tyrosine-protein kinase ITK/TSK (Homo sapiens) (Q08881 whole entry): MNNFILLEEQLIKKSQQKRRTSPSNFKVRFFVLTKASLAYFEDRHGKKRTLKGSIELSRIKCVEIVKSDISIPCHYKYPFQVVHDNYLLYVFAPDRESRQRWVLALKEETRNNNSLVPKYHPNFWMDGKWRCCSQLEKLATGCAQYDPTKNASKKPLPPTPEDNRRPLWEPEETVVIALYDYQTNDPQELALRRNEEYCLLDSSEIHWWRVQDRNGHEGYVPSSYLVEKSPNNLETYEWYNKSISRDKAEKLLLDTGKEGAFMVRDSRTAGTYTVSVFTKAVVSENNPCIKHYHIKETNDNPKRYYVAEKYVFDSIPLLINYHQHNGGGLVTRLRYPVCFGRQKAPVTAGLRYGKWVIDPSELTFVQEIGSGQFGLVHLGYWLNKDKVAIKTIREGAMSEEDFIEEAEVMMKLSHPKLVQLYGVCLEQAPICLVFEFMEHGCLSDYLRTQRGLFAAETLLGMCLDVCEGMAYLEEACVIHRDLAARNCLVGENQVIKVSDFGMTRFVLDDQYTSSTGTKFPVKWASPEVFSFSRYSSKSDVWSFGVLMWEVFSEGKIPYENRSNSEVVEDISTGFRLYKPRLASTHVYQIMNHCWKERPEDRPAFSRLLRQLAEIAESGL

SMILES | % Inhibition of Control Agonist Response (Mean n=2) [1] | % of Control Agonist Response (Mean n=2) [1] | residual activity [2] | residual activity [3] | residual activity [4] | residual activity [5] | residual activity [6] | residual activity [7] | residual activity [8] | residual activity [9] | residual activity [10] | residual activity [11] | residual activity [12] | residual activity [13] | residual activity [14] | residual activity [15] | residual activity [16] | residual activity [17] | residual activity [18] | residual activity [19] | further results
O=C(N1CCS(=O)(=O)CC1)N1C[C@H](c2ccc(OC(F)(F)F)cc2)C[C@H](c2nc(C3CC3)no2)C1 [BAY-386] | -1.7% | 6.3% | 89% | 100% | 100% | 99% | 97% | 82% | 100% | 91% | 100% | 93% | 100% | 100% | 100% | 100% | 100% | 100% | 100% | 77% | residual activity [20]: 80%; residual activity [21]: 100%; residual activity [22]: 100%; residual activity [23]: 99%; residual activity [24]: 100%; residual activity [25]: 100%; residual activity [26]: 81%; residual activity [27]: 100%; residual activity [28]: 100%; residual activity [29]: 97%; residual activity [30]: 100%; residual activity [31]: 91%; residual activity [32]: 100%; residual activity [33]: 100%; residual activity [34]: 94%; residual activity [35]: 82%; residual activity [36]: 90%; residual activity [37]: 100%; residual activity [38]: 93%; residual activity [39]: 90%
Cc1noc([C@H]2C[C@@H](c3ccc(C(F)(F)F)cc3)CN(C(=O)N3CCS(=O)(=O)C3)C2)n1 [BAY-448] | -13.5% | 2.5% | 100% | 100% | 100% | 100% | 100% | 100% | 97% | 95% | 100% | 81% | 100% | 70% | 100% | 77% | 100% | 91% | 100% | 80% | residual activity [20]: 83%; residual activity [21]: 100%; residual activity [22]: 100%; residual activity [23]: 100%; residual activity [24]: 100%; residual activity [25]: 100%; residual activity [26]: 84%; residual activity [27]: 100%; residual activity [28]: 84%; residual activity [29]: 100%; residual activity [30]: 100%; residual activity [31]: 81%; residual activity [32]: 100%; residual activity [33]: 100%; residual activity [34]: 100%; residual activity [35]: 100%; residual activity [36]: 100%; residual activity [37]: 89%; residual activity [38]: 77%; residual activity [39]: 100%
